This is an account of results in ChEMBL document CHEMBL5030561, “Discovery of novel aminosaccharide-based sulfonamide derivatives as potential carbonic anhydrase II inhibitors” (Bioorg Med Chem Lett, 2021).

Series [1] can be described thus: in vitro. The settings on record: mouse, liver microsomes. (Liver microsomes are vesicles of endoplasmic reticulum, rich in cytochrome P450 enzymes.)
Description: Metabolic stability in mouse liver microsomes assessed as half-life
Series [2] in a line: Solubility of compound in water. The class given is physicochemical. The settings on record: buffer.
Series [3] can be described thus: Cytotoxicity against HCEC cells assessed as cell viability at 1% by MTT assay relative to control. The class given is cell-based. As to conditions: human, read-out: Activity. (In general: Tetrazolium assays rely on reduction of a dye to a coloured formazan, in cell work by metabolically active cells.)
The target of series [4] is Carbonic anhydrase 9 (Homo sapiens, UniProt Q16790). The series is described as follows: Inhibition of recombinant human CA9 using 4-nitrophenylacetate as substrate by esterase assay.
Series [5] can be described thus: in vitro. As to conditions: mouse, liver microsomes. The source holds these as a separate data set.
Description: Metabolic stability in mouse liver microsomes assessed as clearance
Series [6] can be described thus: Cytotoxicity against HCEC cells assessed as cell viability at 2 % by MTT assay relative to control. The class given is cell-based. The settings on record: human, read-out: Activity.
The species entered for series [7] is Homo sapiens. The series is described as follows: Selectivity ratio of IC50 for inhibition of recombinant human CA9 to IC50 for inhibition of recombinant CA2 using 4-nitrophenylacetate as substrate by esterase assay.
For series [8], the target named is Carbonic anhydrase 1 (Homo sapiens, UniProt P00915). Put plainly: Inhibition of recombinant human CA1 using 4-nitrophenylacetate as substrate by esterase assay.
Series [9] concerns the target Carbonic anhydrase 2 (Homo sapiens, UniProt P00918).
Description: Inhibition of recombinant human CA2 using 4-nitrophenylacetate as substrate by esterase assay
For series [10], the species on record is Homo sapiens. The series is described as follows: Selectivity ratio of IC50 for inhibition of recombinant human CA1 to IC50 for inhibition of recombinant human CA2 using 4-nitrophenylacetate as substrate by esterase assay.

Carbonic anhydrase 1, sequence (P00915 whole entry): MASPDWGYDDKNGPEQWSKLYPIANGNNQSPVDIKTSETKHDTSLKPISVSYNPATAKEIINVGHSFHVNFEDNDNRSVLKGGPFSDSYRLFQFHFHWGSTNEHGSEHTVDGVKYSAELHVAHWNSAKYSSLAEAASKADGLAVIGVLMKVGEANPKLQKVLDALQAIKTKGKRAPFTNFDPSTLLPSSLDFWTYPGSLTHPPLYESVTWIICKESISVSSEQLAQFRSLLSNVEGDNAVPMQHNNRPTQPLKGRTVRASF

Turning to `CCO[C@@H]1O[C@H](CNC(=O)c2ccc(S(N)(=O)=O)cc2)[C@@H](O)[C@H](O)[C@H]1N`, the half-life (usually the time needed for the level to fall by half in the phase considered) in series [1] is 58.6 h. Also, the solubility in series [2] was found to be 2.3%. The viability at 1 % in series [3] is 76%. The IC50 (commonly the concentration needed to halve the response being measured) in series [4] came to 0.22 µM. Further, the CLint scaled (usually a measure of how fast metabolising enzymes remove a compound, apart from limits set by blood flow) in series [5] stood at 1.56 mL/min/kg. The viability at 2 % in [6] was 71%.
In [1], `CCCO[C@@H]1O[C@H](CNC(=O)c2ccc(S(N)(=O)=O)cc2)[C@H](O)[C@H](O)[C@H]1O` returned a half-life of 66.4 h. Besides, the solubility in series [2] amounted to 2.2%. Besides, in [3], the viability at 1 % was found to be 76%. Moreover, in series [4], the IC50 came to 0.22 µM. The molecule also displayed a CLint scaled in series [5] of 1.38 mL/min/kg. Further, in [6], the viability at 2 % was 71%.
As for `CCO[C@@H]1O[C@H](CNC(=O)c2ccc(S(N)(=O)=O)cc2)[C@@H](O)[C@H](O)[C@@H]1O`, in series [1], the half-life came to 61.6 h. The solubility in [2] is 2%. In [3], the viability at 1 % came to 76%. The concentration for half-maximal inhibition (IC50) in series [4] amounted to 0.2 µM. In series [5], the intrinsic metabolic clearance (CLint scaled) was 1.48 mL/min/kg. Further, the viability at 2 % in series [6] worked out at 71%.
Regarding `CCN[C@H]1C[C@H](C)S(=O)(=O)c2sc(S(N)(=O)=O)cc21` [DORZOLAMIDE], the solubility in series [2] is 0.67%.
The molecule `CO[C@@H]1O[C@H](CNC(=O)c2ccc(S(N)(=O)=O)cc2)[C@@H](O)[C@H](O)[C@H]1O` gave a half-life in series [1] of 58.6 h. In [2], this molecule returned a solubility of 2.5%. In addition, the Selectivity ratio was 1.5 in series [7] and 20 in series [10]. Also, in series [3], the viability at 1 % was 76%. The IC50 in [8] came to 2 µM; in [4] it was 0.15 µM; in series [9] it was 0.1 µM. The same molecule returned a CLint scaled in [5] of 1.56 mL/min/kg. Moreover, the viability at 2 % in [6] was 71%.
For `CCCO[C@@H]1O[C@H](CNC(=O)c2ccc(S(N)(=O)=O)cc2)[C@@H](O)[C@H](O)[C@@H]1O`, in series [1], the half-life stood at 64.5 h. For the same molecule, the solubility in [2] was found to be 2.1%. Moreover, the viability at 1 % in [3] worked out at 76%. Also, in [4], the IC50 was 0.26 µM. In addition, the intrinsic clearance (CLint scaled) in series [5] was 1.42 mL/min/kg. In addition, the viability at 2 % in series [6] stood at 71%.
In [1], `CO[C@@H]1O[C@H](CNC(=O)c2ccc(S(N)(=O)=O)cc2)[C@@H](O)[C@H](O)[C@H]1N` returned a half-life of 55.8 h. Also, the solubility in [2] amounted to 2.5%. The Selectivity ratio came to 1.6 in [7] and 19 in series [10]. In series [3], the viability at 1 % turned out to be 76%. In addition, the IC50 in series [8] turned out to be 2.3 µM; in series [4], 0.19 µM; in [9], 0.12 µM. In series [5], this molecule displayed a CLint scaled of 1.64 mL/min/kg. Besides, the viability at 2 % in [6] was determined as 71%.
In series [1], `CCO[C@@H]1O[C@H](CNC(=O)c2ccc(S(N)(=O)=O)cc2)[C@H](O)[C@H](O)[C@H]1O` showed a half-life of 61.1 h. Also, the solubility in series [2] came out at 2.1%. Moreover, the viability at 1 % in series [3] worked out at 76%. Moreover, the IC50 in series [4] worked out at 0.18 µM. This molecule had a CLint scaled in series [5] of 1.5 mL/min/kg. In addition, in [6], the viability at 2 % is 71%.
Molecule `CCCO[C@@H]1O[C@H](CNC(=O)c2ccc(S(N)(=O)=O)cc2)[C@@H](O)[C@H](O)[C@H]1N` had a half-life in series [1] of 64.4 h. In [2], this molecule yielded a solubility of 2.2%. Besides, the viability at 1 % in series [3] was 76%. Moreover, the IC50 in [4] came out at 0.29 µM. Also, in series [5], the CLint scaled was 1.42 mL/min/kg. In addition, the viability at 2 % in series [6] stood at 71%.
In turn, `CC(=O)Nc1nnc(S(N)(=O)=O)s1` [ACETAZOLAMIDE] had a solubility in series [2] of 0.21%. In addition, the viability at 1 % in series [3] stood at 40%. In addition, the viability at 2 % in [6] was 25%.
In turn, `CCO[C@@H]1O[C@H](CNC(=O)c2ccc(S(N)(=O)=O)cc2)[C@@H](O)[C@H](O)[C@H]1O` came in with a half-life in series [1] of 59.5 h. This molecule yielded a solubility in [2] of 2.2%. Also, the viability at 1 % in [3] turned out to be 76%. For the same molecule, the IC50 in series [4] turned out to be 0.19 µM. The same molecule had a CLint scaled in [5] of 1.54 mL/min/kg. The viability at 2 % in series [6] is 71%.
`CO[C@@H]1O[C@H](CNC(=O)c2ccc(S(N)(=O)=O)cc2)[C@H](O)[C@H](O)[C@H]1O` returned a half-life in [1] of 60.4 h. The solubility in series [2] was 2.1%. In addition, the Selectivity ratio in series [7] was determined as 3.3; in [10], 45. Besides, in [3], the viability at 1 % stood at 76%. Further, the IC50 was 2.7 µM in series [8], 0.2 µM in [4] and 0.06 µM in series [9]. The same molecule yielded a CLint scaled in [5] of 1.52 mL/min/kg. Also, the viability at 2 % in series [6] was 71%.
Molecule `CCN[C@H]1CN(CCCOC)S(=O)(=O)c2sc(S(N)(=O)=O)cc21` [BRINZOLAMIDE] returned a solubility in series [2] of 0.05%.
For `CO[C@@H]1O[C@H](CNC(=O)c2ccc(S(N)(=O)=O)cc2)[C@@H](O)[C@H](O)[C@@H]1O`, the half-life in series [1] worked out at 57.2 h. This molecule had a solubility in [2] of 2.3%. Besides, the figures for the Selectivity ratio in [7] and in series [10] were 2.4 and 41, respectively. Also, the viability at 1 % in series [3] worked out at 76%. Also, the IC50 stood at 2.9 µM in series [8], 0.17 µM in [4] and 0.07 µM in [9]. In addition, the CLint scaled in [5] amounted to 1.6 mL/min/kg. In addition, the viability at 2 % in series [6] stood at 71%.
Turning to `CCCO[C@@H]1O[C@H](CNC(=O)c2ccc(S(N)(=O)=O)cc2)[C@@H](O)[C@H](O)[C@H]1O`, the half-life in series [1] was found to be 59.9 h. Also, the solubility in series [2] turned out to be 2.1%. Further, the viability at 1 % in series [3] worked out at 76%. The IC50 in [4] was 0.16 µM. The CLint scaled in series [5] was found to be 1.53 mL/min/kg. Also, the viability at 2 % in series [6] came out at 71%.
`O=C(O)Cc1ccccc1Nc1c(Cl)cccc1Cl` [DICLOFENAC] showed a half-life in [1] of 0.667 h. In addition, the CLint scaled in [5] stood at 137 mL/min/kg.
